Measurements from PMC11187126, “Structure and dynamics of the pyroglutamylated RF-amide peptide QRFP receptor GPR103” (Nature Communications, 2024).
No end group written: not given here.

Molecular target: T1, GPR103 C98^2.57A (Homo sapiens, UniProt Q96P65, C98A)
T1 construct: we used human full-length QRFPR-encoding plasmids; expressed in transfected cells; host or cells: HEK293 cells, pCAGGS vector
T1 sequence (Q96P65 1-431 C98A): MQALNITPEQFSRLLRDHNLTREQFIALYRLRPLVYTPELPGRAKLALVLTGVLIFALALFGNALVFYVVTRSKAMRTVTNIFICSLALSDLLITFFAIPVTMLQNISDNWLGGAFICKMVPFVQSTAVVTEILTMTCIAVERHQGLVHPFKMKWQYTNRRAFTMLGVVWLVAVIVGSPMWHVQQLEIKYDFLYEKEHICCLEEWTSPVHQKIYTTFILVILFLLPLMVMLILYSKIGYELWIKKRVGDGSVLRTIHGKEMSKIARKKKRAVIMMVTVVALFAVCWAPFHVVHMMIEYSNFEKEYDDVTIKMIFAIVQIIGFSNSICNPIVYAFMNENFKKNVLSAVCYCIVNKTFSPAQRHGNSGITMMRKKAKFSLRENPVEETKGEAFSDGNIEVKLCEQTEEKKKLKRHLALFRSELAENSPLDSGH
Test: TGFα shedding assay; Exp. level WT (1:50)
Assay type: cell-based
Method: For the TGFα shedding assay and the flow cytometry analysis, we used human full-length QRFPR-encoding plasmids. Specifically, GPR103 was N-terminally modified with an HA signal sequence followed by a FLAG epitope and then a flexible linker ([…]; the FLAG epitope is underlined) and inserted into the pCAGGS vector. Plasmid encoding GPR103 mutants were generated using Quickchange Site-Directed Mutagensis kit (Agilent).
The TGFα shedding assay was performed as described previously with minor modifications. Plasmid transfection was performed in a 6-well plate with a mixture of 500 ng (per well in a 6-well plate) AP-TGFα-encoding plasmid and 200 ng GPR103-encoding plasmid. After 1-day culture, the transfected cells were harvested by trypsinization, pelleted by centrifugation at 190 × g for 5 min, and washed once with 5 mM HEPES (pH 7.4)-containing Hank’s Balanced Salt Solution (HBSS). After centrifugation, the cells were resuspended in 8 mL of the HEPES-containing HBSS. The cell suspension was seeded in a 96-well culture plate (cell plate) at a volume of 90 μL (per well hereafter) and incubated in a 37 °C incubator with 5% CO2 for 30 min. […] After spinning the cell plates at 190 × g for 2 min, 80 μL of conditioned media was transferred to an empty 96-well plate (conditioned media (CM) plate). Then, 80 μL of AP reaction solution (10 mM p-nitrophenylphosphate (p-NPP), 120 mM Tris-HCl (pH 9.5), 40 mM NaCl, and 10 mM MgCl2) was dispensed into the cell plates and the CM plates. Absorbance at 405 nm of the plates was measured using a microplate reader (SpectraMax 340 PC384, Molecular Devices) before and after 1-h incubation at room temperature. Ligand-induced AP-TGFα release was calculated by subtracting spontaneous AP-TGFα release signal from ligand-induced AP-TGFα release signal. The AP-TGFα release signals were fitted to a four-parameter sigmoidal concentration–response curve, using the Prism 10 software (GraphPad Prism). For each replicate experiment, the pEC50 parameter (negative logarithmic values of EC50 values) of the individual GPR103 mutants were normalized to that of the wild-type GPR103 performed in parallel, and resulting ∆pEC50 values were used to denote ligand response activity of the mutants. […]
Exp. le vel: WT (1:5 0)Exp. le vel: WT (1:5 0)Exp. le vel: WT (1:5 0)Exp. le vel: WT (1:2 0)Exp. le vel: WT (1:2 0)Exp. le vel: WT (1:1 0) […]
L1 4N - t e r mA F2 5N - t e r mA I 2 6N - t e r mA Y 2 9N - t e r mA C 9 82 .5 7A T10 22 .6 1A Exp . l eve l: WT (1 :5)Exp . l evel : >WT (1 :1)Exp. le vel: WT (1:2 0)Exp. le vel: WT (1:2 0)Exp. le vel: WT (1:5 0)Exp . l eve l: WT (1 :1) […]
Exp. le vel: WT (1:1 0)Exp. le vel: WT (1:2 0) C 1 1 83 .2 5AExp. le vel: WT (1:5 0)Exp. le vel: WT (1:5 0)Exp. le vel: WT (1:2 0)Exp . l eve l: WT (1 :5) […]
Exp. le vel: WT (1:5 0)Exp. le vel: WT (1:1 0)Exp. le vel: WT (1:5 0) E203ECL2AExp . l evel : >WT (1 :1)Exp. le vel: WT (1:5 0)Exp. le vel: WT (1:5 0) […]
Exp . l eve l: WT (1 :1) F28Exp. le vel: WT (1:5 0) C 2 8 56 .4 7AExp. le vel: WT (1:2 0) WExp. le vel: WT (1:2 0) F28Exp. le vel: WT (1:5 0)Exp . l evel : >WT (1 :1) […]
Exp. le vel: WT (1:5 0)Exp. le vel: WT (1:5 0) C 3 2 77 .4 8AExp . l eve l: WT (1 :5)Exp . l evel : >WT (1 :1)Exp . l evel : >WT (1 :1) […]
Suppl eme nt ary Figure 1 | Mutational analysis of GPR103. […]
mutants. Data are presented as mean values ± SEM, normally n=3-5; dots), each performed in triplicate. b-d Cell-surface expression (b) and QRFP26-in-duced activation of GPR103 (c, d) were analyzed by the flow cytometry and the TGFα shedding assay, respectively. From the concentration–response curves (a), Emax (c) and ΔpEC50 (d) values relative to the wild type were calculated. Colors in the mutant bars indicate an expression level matching to that of titrated wild type. Statistical analyses were performed using the ordinary one-way ANOVA followed by Dunnett tests with the expression-matched […]

TSGPLGNLAEELNGYSRKKGGFSFRF-NH2 [QRFP26]
Emax (mean): 86% | EC50 (n = 3): 72.4 nM | Emax (n = 3): 88.3 ± 3.6%
